Entries after “also recorded” stand apart in the source; their conditions may differ.
Tests used:
Format in all cases: cell-based, bovine
BAEC [1] = experiment: Effects of tocotrienols on multiplication of BAEC, MTT assay; conditions: for inhibitory action against cell multiplication: Table 1; for Absorbance: MTT
Method: Normal bovine aortic endothelial cells (BAEC) were manufactured by Cell Systems Co., and purchased through Dainippon Seiyaku Co., Ltd.
A cell suspension was prepared by adding the cells to MEM (Sigma Chemical Co.) containing 10 v/v (%) fetal bovine serum (FBS), 20 IU/ml penicillin and 20 IU/ml streptomycin (MEM+10% FBS) in a concentration of 1×10^5 cells/ml, and cultured in a 5% CO2 incubator at 37° C. by using a 60 mm dish coated with type I collagen with subculturing every 2 to 3 days.
Each of the above samples was added to MEM containing 2% (v/v) FBS, 20 IU/ml penicillin and 20 IU/ml streptomycin (MEM+2% FBS), and subjected to testing.
Effects of tocotrienols on the multiplication of BAEC were examined by using MTT assay.
(§1) Each one microplate was taken out after 0, 24, 48 or 96 hours from placing the culture medium containing a sample. In the case of the microplate taken out after 96 hours, the culture medium was once changed after 48 hours. 3 mg/ml MTT solution PBS (−) was put in each well in an amount of 50 μl/well, and incubated for 3 hours in a CO2 incubator. After filling each well with phosphate buffered saline (PBS(−)), liquid in each well was evacuated, and isopropyl alcohol containing 0.04 mol/l HCL was put in each well in an amount of 200 μl/well. The microplates were allowed to stand overnight in a dark place, and then, absorbance at 595 nm and 655 nm (dual) was measured by a microplate reader.
In the case of Control group A, no sample was added.

BAEC [2] = experiment: Inhibitory action against FGF activity, MTT assay on BAEC with FGF 20 ng/ml; set-up: key to Cell Multiplication: ↑: Accelerated; /: Tendency to increase; No change; ↓: Inhibited; ↓↓: Strongly inhibited; conditions: for Absorbance: MTT; for Cell Multiplication: summary
Method: The fibroblast growth factor sample was prepared by dissolving a commercial FGF (Sigma Chemical Co.) in MEM (Sigma Chemical Co.)
as §1
In the case of Control group B, no sample was added.

BAEC [3] = experiment: Neovasculation / lumen formation of BAEC between two layers of type I collagen gel
Method: BAEC was cultured between two layers of type I collagen gel, and a lumen-like netting structure formed therebetween was evaluated.
(§2) Eight parts by volume of “Vitrogen Collagen” (Collagen Co.), 1 part by volume of 0.1 N NaOH and 1 part by volume of ×10 MEM (GIBCO BRL) were placed in a tube, and mixed quickly in an ice bath. The culture solution was removed by suction, and 0.5 ml/well of the above mixture containing collagen was pipetted into each well. The microplate was placed in a CO2 incubator for about 30 minutes to gelatinize it. 1.5 ml of a medium (MEM | 2% FBS) containing a sample was added, and continued to incubate while changing the medium every second day.
(§3) The variation of cells were observed by a microscope by taking a photograph, and lumen formation was evaluated by counting the number of branches of cells forming lumen.
The inhibition test against lumen formation was carried out in the same manner as Example 15, except that α-tocopherol was substituted for DL-α-tocotrienol.

BAEC [4] = experiment: Inhibition against lumen formation induced by FGF; set-up: key to Lumen Formation: ↑: Accelerated; /: Tendency to increase; No change; ↓: Inhibited; ↓↓: Strongly inhibited; conditions: for Lumen Formation: summary
Method: as §2, §3
The test was carried out similar to Examples 12-14, wherein FGF was added together with each tocotrienol. In the case of Control group E, no sample was added. […]

BAEC [5] = experiment: Cell multiplication of BAEC, survival rate of cells using WST-1; conditions: for Survival Rate of Cells (% of control): 24 hours, WST-1; for IC50: determined from the graph of FIG. 1 (abscissa μM), read-out: median growth inhibition concentration (IC50)
Method: Influence of tocotrienols on cell multiplication of BAEC was examined in various concentrations. The cell multiplication was evaluated by determining the survival rate of cells using WST-1, which makes it possible to conduct high sensitivity measurement, instead of conventional MTT.
As a blank, the culture medium alone was incubated without adding cells. […] The microplate was taken out after 24 hours from placing the culture medium containing a sample. 10 μl/well of WST-1 solution was added to each well, and incubated in a CO2 incubator. After 3 hours, absorbance at 450 nm and 655 nm (dual) of each well was measured by a microplate reader.
The samples employed were DL-α-tocotrienol, DL-γ-tocotrienol and DL-δ-tocotrienol. In the case of Control group I, no sample was added.
The survival rate of cells was determined by the following formula:
Survival Rate of Cells=(S−B)/(C−B)×100(%)
The results of Table 10 were made in a graph shown in FIG. 1, and median growth inhibition concentration (IC50) was determined from the graph. In the figure, the numbers on the ordinate indicate the survival rate of cells (% of control), and the numbers on the abscissa indicate concentration (μM). ● is DL-α-tocotrienol, ▪ is DL-β-tocotrienol, Δ is DL-γ-tocotrienol, and X is DL-δ-tocotrienol, respectively.

[6] = FGF (20 ng/ml) + sample (100 μM)
[7] = 0 hr, FGF 20 ng/ml + sample 10 μM
[8] = 24 hrs, FGF 20 ng/ml + sample 10 μM
[9] = 48 hrs, FGF 20 ng/ml + sample 10 μM
[10] = 96 hrs, FGF 20 ng/ml + sample 10 μM
[11] = FGF (20 ng/ml) + sample (10 μM)

SMILES | inhibitory action against cell multiplication (BAEC [1]; 10 μM) | Absorbance (BAEC [1]; 0 hr, sample 10 μM) | Absorbance (BAEC [1]; 24 hrs, sample 10 μM) | Absorbance (BAEC [1]; 48 hrs, sample 10 μM) | Absorbance (BAEC [1]; 96 hrs, sample 10 μM) | Absorbance (BAEC [2]; [7]) | Absorbance (BAEC [2]; [8]) | Absorbance (BAEC [2]; [9]) | Absorbance (BAEC [2]; [10]) | Cell Multiplication (BAEC [2]; [11]) | inhibition of lumen formation (BAEC [3]; 10 μM) | Number of Cells Forming Lumen/cm^2 (BAEC [3]; Table 4, 10 μM) | inhibition of lumen formation induced by FGF (BAEC [4]; 10 μM + FGF 20 ng/ml) | Number of Cells Forming Lumen/cm^2 (BAEC [4]; sample 10 μM + FGF 20 ng/ml) | Lumen Formation (BAEC [4]; [11]) | Survival Rate of Cells (% of control) (BAEC [5]; 2 μM) | Survival Rate of Cells (% of control) (BAEC [5]; 4 μM) | Survival Rate of Cells (% of control) (BAEC [5]; 6 μM) | Survival Rate of Cells (% of control) (BAEC [5]; 8 μM) | IC50 (BAEC [5]) [µM] | further results
Cc1c(C)c2c(c(C)c1O)CC[C@@](C)(CCC[C@H](C)CCC[C@H](C)CCCC(C)C)O2 [α-Tocopherol, α-tocopherol, reference compound] | – | – | – | – | – | – | – | – | – | – | – | – | – | – | – | – | – | – | – | – | inhibitory action against cell multiplication (BAEC [1]; 100 μM): does not exhibit inhibitory action; Absorbance (BAEC [1]; 0 hr, sample 100 μM): 0.092 ± 0.003; Absorbance (BAEC [1]; 24 hrs, sample 100 μM): 0.140 ± 0.003; Absorbance (BAEC [1]; 48 hrs, sample 100 μM): 0.268 ± 0.004; Absorbance (BAEC [1]; 96 hrs, sample 100 μM): 0.520 ± 0.012; Absorbance (BAEC [2]; 0 hr, FGF 20 ng/ml + sample 100 μM): 0.045 ± 0.002; Absorbance (BAEC [2]; 24 hrs, FGF 20 ng/ml + sample 100 μM): 0.080 ± 0.004; Absorbance (BAEC [2]; 48 hrs, FGF 20 ng/ml + sample 100 μM): 0.242 ± 0.014; Absorbance (BAEC [2]; 96 hrs, FGF 20 ng/ml + sample 100 μM): 0.360 ± 0.020; Cell Multiplication (BAEC [2]; [6]): ↑; inhibition of lumen formation (BAEC [3]; 100 μM): did not inhibit lumen formation; inhibition of lumen formation induced by FGF (BAEC [4]; 100 μM + FGF 20 ng/ml): not found; Number of Cells Forming Lumen/cm^2 (BAEC [4]; sample 100 μM + FGF 20 ng/ml): 25.25 ± 2.10 /cm^2; Lumen Formation (BAEC [4]; [6]): →
CC(C)=CCC/C(C)=C/CC/C(C)=C/CC[C@]1(C)CCc2cc(O)cc(C)c2O1 (racemic) [DL-δ-Tocotrienol, δ-tocotrienol] | remarkable inhibitory action | 0.103 ± 0.001 | 0.004 ± 0.000 | 0.003 ± 0.000 | 0.002 ± 0.000 | 0.040 ± 0.002 | 0.003 ± 0.000 | 0.003 ± 0.000 | 0.003 ± 0.000 | ↓↓ | inhibited lumen formation completely | 0.00 ± 0.00 /cm^2 | inhibited the lumen formation completely; also recorded: exhibit inhibitory action against lumen formation | 0.00 ± 0.00 /cm^2 | ↓↓ | 93.0 ± 6.8 % of control | 109.4 ± 8.0 % of control | 0.9 ± 1.3 % of control | 5.8 ± 4.5 % of control | 5.5 | Survival Rate of Cells (% of control) (BAEC [5]; 10 μM): 0.4 ± 0.9 % of control
CC(C)=CCC/C(C)=C/CC/C(C)=C/CC[C@]1(C)CCc2c(C)c(O)c(C)c(C)c2O1 (racemic) [DL-α-Tocotrienol, α-tocotrienol] | – | 0.090 ± 0.003 | 0.141 ± 0.008 | 0.271 ± 0.010 | 0.382 ± 0.014 | 0.044 ± 0.002 | 0.096 ± 0.004 | 0.290 ± 0.010 | 0.328 ± 0.018 | ↑ | equivalent to the control group | 39.25 ± 1.84 /cm^2 | inhibited the lumen formation induced by FGF | 25.25 ± 1.55 /cm^2 | → | – | – | – | – | 38 | inhibition of lumen formation (BAEC [3]; 50 μM): completely inhibited formation; Number of Cells Forming Lumen/cm^2 (BAEC [3]; Table 4, 30 μM): 31.75 ± 1.25 /cm^2; Number of Cells Forming Lumen/cm^2 (BAEC [3]; Table 4, 50 μM): 0.00 ± 0.00 /cm^2; Number of Cells Forming Lumen/cm^2 (BAEC [3]; Table 4, 100 μM): 39.25 ± 2.17 /cm^2; Survival Rate of Cells (% of control) (BAEC [5]; 25 μM): 111.0 ± 6.8 % of control; Survival Rate of Cells (% of control) (BAEC [5]; 30 μM): 115.8 ± 9.2 % of control; Survival Rate of Cells (% of control) (BAEC [5]; 35 μM): 67.3 ± 11.6 % of control; Survival Rate of Cells (% of control) (BAEC [5]; 40 μM): 39.1 ± 12.7 % of control; Survival Rate of Cells (% of control) (BAEC [5]; 45 μM): 6.9 ± 5.9 % of control
CC(C)=CCC/C(C)=C/CC/C(C)=C/CC[C@]1(C)CCc2c(C)c(O)cc(C)c2O1 (racemic) [DL-β-Tocotrienol, β-tocotrienol] | remarkable inhibitory action | 0.084 ± 0.002 | 0.029 ± 0.004 | 0.39 ± 0.007 | 0.011 ± 0.002 | 0.042 ± 0.002 | 0.036 ± 0.003 | 0.055 ± 0.005 | 0.039 ± 0.004 | ↓↓ | – | – | inhibited the lumen formation completely; also recorded: exhibit inhibitory action against lumen formation | 0.00 ± 0.00 /cm^2 | ↓↓ | 89.4 ± 5.1 % of control | 97.8 ± 7.9 % of control | 57.1 ± 5.9 % of control | 5.6 ± 5.4 % of control | 6.5 | Survival Rate of Cells (% of control) (BAEC [5]; 10 μM): 0.0 ± 0.0 % of control
